Biological target: Glutamate receptor ionotropic, NMDA 1 (Rattus norvegicus, UniProt P35439)
Assay: (§1) In vitro inhibition of the specific binding of [3H]Gly to N-methyl-D-aspartate glutamate receptor 1 in rat whole brain membranes except cerebellum
Format: cell membranes
Settings: not given

SMILES | Ki [nM]
COc1nc2[nH]c(=O)c(=O)[nH]c2cc1[N+](=O)[O-] | 370
O=[N+]([O-])c1cc2nc(O)c(O)nc2nc1[N+](=O)[O-] | 8000

Biological target: Glutamate receptor ionotropic, AMPA (Rattus norvegicus) (UniProt P19491+P19492+P19493+P19490)
Assay: Inhibition [3H]AMPA binding to ionotropic glutamate receptor AMPA in rat whole brain membranes in the presence of […] KSCN
Format: cell membranes
Settings: not given

SMILES | inhibition [%]
Oc1nc2ccc(N3CCOCC3)nc2nc1O | 32
Oc1nc2ccncc2nc1O | 32
Cc1cnc2nc(O)c(O)nc2c1 | 74
Oc1nc2cncnc2nc1O | 62
Oc1nc2ccc(-n3ccnc3)nc2nc1O | 76

Further lines, results first:

inhibition [%] | SMILES
55 | CSc1ccc2nc(O)c(O)nc2n1
41 | COc1ccc2nc(O)c(O)nc2n1
31 | Cc1ccc2nc(O)c(O)nc2n1
66 | O=[N+]([O-])c1ccc2nc(O)c(O)nc2n1
29 | Oc1nc2ccc(Cl)nc2nc1O
56 | CS(=O)(=O)c1ccc2nc(O)c(O)nc2n1
30 | CNc1ccc2nc(O)c(O)nc2n1
37 | Oc1ccc2nc(O)c(O)nc2n1
22 | Oc1nc2cccnc2nc1O

Biological target: Glutamate receptor ionotropic, NMDA 1 (Rattus norvegicus) (UniProt P35439)
Assay: as §1
Format: cell membranes
Settings: concentration not given here

SMILES | inhibition [%]
O=c1[nH]c2cc(-n3ccnc3)c([N+](=O)[O-])cc2[nH]c1=O | 16
O=[N+]([O-])c1cc2nc(O)c(O)nc2nc1N1CCOCC1 | 14
O=[N+]([O-])c1cc2nc(O)c(O)nc2nc1-n1ccnc1 | 0

Biological target: Glutamate receptor ionotropic, AMPA (Rattus norvegicus, UniProt P19490+P19491+P19492+P19493)
Assay: In vitro inhibition of the specific binding of [3H]AMPA to Ionotropic glutamate receptor AMPA in rat whole brain membranes in the presence of […] KSCN
Format: cell membranes
Settings: not given

SMILES | Ki [nM]
COc1nc2[nH]c(=O)c(=O)[nH]c2cc1[N+](=O)[O-] | 700
O=[N+]([O-])c1cnc2nc(O)c(O)nc2c1 | 1100
O=[N+]([O-])c1cc2nc(O)c(O)nc2nc1N1CCOCC1 | 920
O=[N+]([O-])c1cc2nc(O)c(O)nc2nc1-n1ccnc1 | 140
O=[N+]([O-])c1cc2nc(O)c(O)nc2nc1[N+](=O)[O-] | 860

From ChEMBL document CHEMBL1129530, “Novel alpha-amino-3-hydroxy-5-methylisoxazole-4-propionate receptor antagonists: synthesis and structure-activity relationships of 6-(1H-imidazol-1-yl)-7-nitro-2,3(1H,4H)-pyrido[2,3-b]pyrazinedione and related compounds” (J Med Chem, 1996)
